Experiments:
male cynomolgus monkeys = conditions: cynomolgus monkey, in vivo
juvenile mice = conditions: mouse, in vivo
CBE mouse model = conditions: in vivo

| Molecule | effect on safety or biodistribution of PR001A (male cynomolgus monkeys) | lethality (mice died by P27) (juvenile mice) | body weight (juvenile mice; ip) | adverse effects in peripheral tissues (CBE mouse model) | inhibition of PR001A-encoded and endogenous GCase activity by CBE treatment (CBE mouse model) | reduction of effective GCase activity in tissues following treatment with CBE (CBE mouse model) |
| --- | --- | --- | --- | --- | --- | --- |
| CO[C@H]1C[C@@H]2CC[C@@H](C)[C@@](O)(O2)C(=O)C(=O)N2CCCC[C@H]2C(=O)O[C@H]([C@H](C)C[C@@H]2CC[C@@H](O)[C@H](OC)C2)CC(=O)[C@H](C)/C=C(\C)[C@@H](O)[C@@H](OC)C(=O)[C@H](C)C[C@H](C)/C=C/C=C/C=C/1C [rapamycin] | did not appear to have any effect | – | – | – | – | – |
| conduritol-β-epoxide [CBE] | – | 5 of the 8 | failure to gain weight | No adverse effects | approximately 50% | up to 60% |

— patent US20230310654A1 (priority 2020, published 2023)
